Test results taken from patent US9644010B2, “LY6K epitope peptides for TH1 cells and vaccines containing the same” (ONCOTHERAPY SCIENCE, INC., priority 2012, dated 2017).
“Also recorded” adds a separate entry of the source.

What was measured:
[1] = tested on: LY6K-A24 (177-186) SP-specific CD8^+ T cells; experiment: Stimulation of healthy donor PBMC with the LY6K (172-191) long peptide, tetramer staining; type: cell-based, human; details: PBMC of HLA-A24+ healthy donors; LP 7 micro-M on days 0 and 7, 2 weeks, no cytokine; listed as LY6K (172-191) LP
Procedure: To assess the induction of LY6K-A24 (177-186) SP-specific CTLs from HLA-A24-positive donors by the simulation with LY6K (172-191) LP in vitro, PBMC (2×10^6/well of 24-well plates) were incubated with LY6K (172-191) LP (7 microM) for 2 weeks without addition of any cytokine. On day 0 and 7, LY6K (172-191) LP (7 microM) was added, then on day 14 of in vitro stimulation with LY6K (172-191) LP, the cells were harvested, stained with a PE-labeled tetramer of the HLA-A24 (A*24:02)/LY6K-A24 (177-186) complex in combination with a FITC-labeled anti-human CD8 mAb, and analyzed by flow cytometry.
Expression of LY6K-A24 (177-186) SP specific T cell receptor (TCR) was examined on a FACSCalibur (BD Biosciences) using a PE-labeled tetramer of the HLA-A*24:02/LY6K-A24 (177-186) SP complex (MBL, Nagoya, Japan) according to the manufacturer's instructions. A PE-labeled tetramer of the HLA-A*24:02/HIV-A24 (RYLRDQQLL: SEQ ID NO: 4) complex was used as a negative control.
To assess induction of LY6K-A24 (177-186) SP-specific CTLs from HLA-A24^+ donors (HDL1, HDL3, and HDL4) by simulation with LY6K (172-191) LP in vitro, PBMCs (2×10^6 cells/well of 24-well plates) were incubated with LY6K (172-191) LP (7 microM) for 2 weeks without addition of cytokines. […]

HLA-A24 Tgm = experiment: In vivo cross-priming assay, ex vivo IFN-gamma ELISPOT; parameters: species or system mice; details: 100 micro-g/mouse in IFA
Excerpt: HLA-A24 Tgm were kindly provided by Dr. F. A. Lemonnier (Jung K O, et al. J Virol; 86: 7616-24). For peptide vaccination, the mice were intradermally injected at the base of the tail with LY6K (172-191) LP (100 micro-g/mouse) solution emulsified in IFA at 7-day intervals. Seven days after the second vaccinations with LY6K (172-191) LP, mice were sacrificed to obtain inguinal lymphocytes and CD8^+ T cells were positively isolated with magnetic microbeads. The number of IFN-gamma producing CD8^+ T cells (3×10^5/well) upon stimulation with LY6K-A24 (177-186) SP or HIV-A24 SP-pulsed C1R-A2402 cells (2×10^4/well) was counted by ELISPOT assay.
HLA-A24 (HHH) transgenic mice (Tgm) were kindly provided by Dr. F. A. Lemonnier (Jung K O, et al. J Virol; 86: 7616-24). Mice were intradermally injected at the base of the tail with LY6K (172-191) LP solution (100 micro-g/mouse) emulsified in incomplete Freund's adjuvant (IFA), third times at 7-day intervals. […] The number of IFN-gamma producing CD8^+ T cells (1×10^5 cells/well) in response to stimulation with LY6K-A24 (177-186) SP-pulsed BM-DCs (2×10^4 cells/well) was counted by ex vivo ELISPOT assay (Inoue M, et al. Immunol Lett 2009; 126:67-72; Harao M, et al. Int J Cancer 2008; 123:2616-25.).

Sequence: KCCKIRYCNLEGPPINSSVF [LY6K (172-191)]
- induction/expansion of HLA-A24-restricted LY6K-A24 (177-186) SP-specific CD8+ T cells (tetramer) [1]: induced an expansion; also recorded: significantly induced
- IFN-gamma production by CD8+ T-cells of immunized mice upon stimulation with LY6K-A24 (177-186) SP-pulsed BM-DCs (HLA-A24 Tgm; HLA-A24 Tgm immunized 3 times): produced IFN-gamma
- IFN-gamma production by CD8+ T cells of immunized mice upon re-stimulation with LY6K-A24 (177-186) SP-pulsed C1R-A2402 cells (HLA-A24 Tgm; HLA-A24 Tgm immunized twice, base of tail, 7-day intervals, inguinal LN): produced IFN-gamma specifically
